Assay results as given in patent US20110318375A1, “Immunomodulatory Therapeutic Agents” (priority 2009, published 2011).
“Also recorded” adds a separate entry of the source. No end group written: not given here. PEG = not defined here

Key:
[1] = tested on: Experimental Allergic Encephalomyelitis (EAE); test: Acute Experimental Allergic Encephalomyelitis mouse model; assay type: in vivo, mice; settings: subcutaneous, dosed daily, every 3 days and weekly
Source text: The carboxy terminus of activated Fibrinopeptide A was considered to be the active portion of the peptide, the carboxy terminus was PEGylate (addition of Poly Ethylene Glycol). This molecule was used to perform an EAE study. This study was designed to mimic the study done by Ruhenstroth-Bauer in 1981 utilizing two of these peptides, and showing some albeit mild benefit. The synthetic PEGylated peptide was expected to perform considerably better than the non-PEGylated peptide. Synthetic non-PEGylated peptide A was used as a positive control to compare the PEGylated verses non-PEGylated peptides. The medications were administered subcutaneously, due to this route having some efficacy in the cytokine profiles.
Test article 2 (PEGylated peptide) dosed daily, every 3 days and weekly never even approached statistically significant benefit.
During the first 22 days of the study EAE development in mice treated with test article 1 (daily non-PEGylated peptide A) was very similar to the vehicle-treated mice. […] Disease worsened in test article 1-treated mice on days 27 and 28 and became very similar to disease severity to the mice in the vehicle-treated group.

Ponto Toro Virus = assay type: in vivo, mice; settings: mouse, in vivo
cytokine panels = test: Cytokine panels for 24 hours after synthetic imf-C3, healthy volunteer; assay type: in vivo, human; settings: followed for 24 hours
Experimental: After getting back the results of the Ponto Toro test and seeing no results from imf-C3, a healthy volunteer was given synthetic imf-C3 and cytokine panels were followed for 24 hours.

| Substance | EAE development / activity versus vehicle-treated mice [1] | EAE development / activity versus vehicle-treated mice ([1]; listed as PEGylated Fibrinopeptide A) | results of the Ponto Toro test (Ponto Toro Virus) | changes in cytokine panels (cytokine panels) |
| --- | --- | --- | --- | --- |
| PEGylated peptide: activated Fibrinopeptide A with Poly Ethylene Glycol added to the carboxy terminus (ADSGEGDFLAEGGGVR-{PEG}; reading uncertain; UniProt P02671 20-35, looked up) | little or no response; also recorded: no activity | decrease any measurable activity |  |  |
| SEETKENERFTV [imf-C3] |  |  | no results | did not demonstrate in any changes |
